In ChEMBL document CHEMBL6127090, “Further Probing the Properties of a Unique Sponge-derived Alkaloid Through the Isolation of a New (-)-(5E)-(8R)-(14Z)-Mycothiazole Analogue” (J Nat Prod, 2024) one finds Activity, IC50 and MTD data, which are given here for four compounds.

Activity calls are given as the source filed them. The rule behind the calls is not given here.

Data set [1] has as its system Caenorhabditis elegans. Description: Induction of mitochondrial morphology change in Caenorhabditis elegans at 5 uM incubated for 24 hrs. The format is functional, organism-based.
Data set [2] deals with Caenorhabditis elegans. In words: Activation of unfolded protein response in Caenorhabditis elegans mitochondria at 5 uM. The format is functional, organism-based.
Data set [3] concerns Caenorhabditis elegans. In words: Reduction in oxygen consumption rate in Caenorhabditis elegans at 5 uM incubated for 24 hrs. The format is functional, organism-based.
The test system of data set [4] is Caenorhabditis elegans. In words: Inhibition of mitochondrial electron transport chain in Caenorhabditis elegans assessed as increase in life span at 5 uM. The format is functional, organism-based.
A further data set deals with PANC-1. In words: Cytotoxicity against human PANC-1 cells incubated for 3 days by trypan blue assay. The conditions noted are these: PANC-1, 72 h. The format is functional, cell-based.
A further data set relates to HepG2. Description: Cytotoxicity against human HepG2 cells incubated for 3 days by trypan blue assay. Conditions: HepG2, 72 h. The format is functional, cell-based.
Data set [5] in a line: Toxicity in iv dosed mouse assessed as maximum tolerated dose. The format is organism-based. Conditions: in vivo.

Regarding `C=CC/C=C\Cc1csc(C(C)(C)[C@@H](O)C/C=C\C(=C)CCNC(=O)OC)n1`, the outcome in the data set on Caenorhabditis elegans [1] and with Caenorhabditis elegans [2] was inactive. Further, the outcome in the data set on Caenorhabditis elegans [3] and in the data set with Caenorhabditis elegans [4] was Active.
Consider `C=CC/C=C\Cc1csc(C(C)(C)[C@H](O)C/C=C/C(=C)CCNC(=O)OC)n1`, for which the IC50 is 112 nM with PANC-1 and 115 nM with HepG2. The result in the data set with Caenorhabditis elegans [1] and with Caenorhabditis elegans [2] was inactive. Besides, the outcome with Caenorhabditis elegans [3] and with Caenorhabditis elegans [4] was Active.
With `C=CC/C=C\Cc1csc(C(C)(C)[C@H](O)C/C=C\C(=C)CCNC(=O)OC)n1`, the outcome in the data set on Caenorhabditis elegans [1] and in the data set on Caenorhabditis elegans [2] was inactive. The outcome with Caenorhabditis elegans [3] and with Caenorhabditis elegans [4] was Active.
For the compound `C=CC/C=C\Cc1csc(C(C)(C)[C@H](C/C=C\C(=C)CCNC(=O)OC)OC(C)=O)n1`, the result in the data set on Caenorhabditis elegans [1] and in the data set on Caenorhabditis elegans [2] was inactive. Further, the result in the data set on Caenorhabditis elegans [3] and with Caenorhabditis elegans [4] was Active. Further, the MTD in data set [5] amounted to 0.1 mg/kg.

Broadly, the IC50 is the concentration at which inhibition is half-maximal. A lower IC50 goes with greater potency. A word on the MTD: it is the largest dose that counted as tolerated.
